What was measured:
[1] = In-vivo kinetic biodistribution of fluorescence after TCO-R-Rhodamine injection; parameters: species or system mice; conditions: Tz-Me-Gel (released) vs negative control (no gel injection)
Protocol: The bar graph extrapolates the data to a presumed total amount achieved in 8 hours.
(§1) For in-vivo experiments, 800 μl of 2.5% alginate solution were mixed with 200 μl of supersaturated […] solution (0.21 g Ca(SO4)2/ml ddH2O). The solutions were mixed for 30 s using a three-way stopcock to achieve a final alginate concentration of 2%. The mixture was immediately injected to the animal in the desired amount.
After IACUC approval, in-vivo real-time biodistribution studies of fluorescence were carried out in nu/nu mice (n=2 per condition) by injecting either nothing or a type of alginate (control vs Tz-Gel). Then subjects received a tail-vein injection of TCO-R-F or TCO-NR-F. The negative controls were: 1. No gels with TCO-R-F (Negative control, mouse 1); 2. control alginate with TCO-R-F (Gel control, mouse 4). The two experimental groups were Tz-gel and either TCO-R-F (Released protocol, mouse 2) or TCO-NR-F (Immobilized protocol, mouse 3). Fluorescence was measured with an IVIS Spectrum (Perkin Elmer, MA) and reported in radiance.

[2] = In-vivo kinetic multiple dose evaluation of fluorescence (IVIS Spectrum); parameters: species or system mice; conditions: 50 nmoles per tail vein injection; Tz-Me-gel group vs no gel and unmodified alginate gel; paired T-test, n=3
Protocol: Three mice were evaluated after each injection of 50 nmoles of TCO-R-Rhodamine through tail vein injection. The mice were treated as described above their images. […] The “released” subject received an injection in the subcutaneous back of Tz-Me-gel. The “gel control” subject received an injection in the subcutaneous back of alginate gel. The mice were evaluated with an IVIS Spectrum machine after 5-10 minutes and 110-150 minutes after each dose of fluorophore.
Compared by paired T-test (n=3).
as §1

- dose reflected by the area under the curve of fluorescence, extrapolated to total amount in 8 hours [1]: almost doubled
- average fluorescence at 5-10 minutes vs 110-150 minutes after second, third & fourth injection [2]: statistically higher
SMILES: CN(C)c1ccc2c(-c3ccc(C(=O)NCCNC(=O)OC4/C=C/CCCCC4)cc3C(=O)O)c3ccc(=[N+](C)C)cc-3oc2c1 (centres unmarked) [TCO-R-Rhodamine, (E)-5-((2-(((cyclooct-2-cn-1-yloxy)carbonyl)amino)ethyl)carbamoyl)-2-(3-(dimethyl-Π^4-azanylidene)-6-(dimethylamino)-3H-xanthen-9-yl)benzoic acid]

From patent US12257326B2, “TCO conjugates and methods for delivery of therapeutic agents” (THE REGENTS OF THE UNIVERSITY OF CALIFORNIA, priority 2014, dated 2025)
